Source: patent US20080058213A1, “Benzoxazole Compounds” (priority 2004, published 2008)

Columns and labels:
Assay type in all cases: in vivo
[1] = system: barnyard grass (Echinochloa crusgalli); experiment: Weed control test for paddy field (Test Example 1): barnyard grass; details: paddy pots, treated at 1.0 leaf stage of barnyard grass, examined after 3 weeks
Source text: (§1) Paddy field soil was filled in 1/10,000 are pots, kneaded with adequate amounts of water and chemical fertilizer, seeded with barnyard grass (Echinochloa crusgalli), Monochoria (Monochoria vaginalis), Japanese bulrush (Scirpus juncoides) and flat sedge (Cyperus serotinus), and further transplanted with 2.0 leaf stage of rice plant. The pots were maintained under the water-filled condition to a depth of 3 cm.
(§2) Wettable powders containing the compounds (1) as identified in Table 1, which were formulated following Production Example 2, were diluted with adequate amount of water and applied to the pots dropwise with pippet at a prescribed dose of the active ingredients per are, at 1.0 leaf stage of the barnyard grass.
(§3) After placing the pots in a glasshouse which was controlled at an average temperature of 25° C. for 3 weeks, herbicidal effect was examined.
(§4) Evaluation of the herbicidal effect is shown in the following six grades, by comparing the condition of untreated control and growth inhibition (%): • 0: 0%-less than 20% • 1: 20%-less than 40% • 2: 40%-less than 60% • 3: 60%-less than 80% • 4: 80%-less than 100% • 5: 100%.

[2] = system: Monochoria (Monochoria vaginalis); experiment: Weed control test for paddy field (Test Example 1): Monochoria; details: paddy pots, treated at 1.0 leaf stage of barnyard grass, examined after 3 weeks
Source text: as §1, §2, §3, §4

[3] = system: Japanese bulrush (Scirpus juncoides); experiment: Weed control test for paddy field (Test Example 1): Japanese bulrush; details: paddy pots, treated at 1.0 leaf stage of barnyard grass, examined after 3 weeks
Source text: as §1, §2, §3, §4

[4] = system: flat sedge (Cyperus serotinus); experiment: Weed control test for paddy field (Test Example 1): flat sedge; details: paddy pots, treated at 1.0 leaf stage of barnyard grass, examined after 3 weeks
Source text: as §1, §2, §3, §4

[5] = system: rice plant; experiment: Weed control test for paddy field (Test Example 1): phytotoxicity to rice plant; details: paddy pots, treated at 1.0 leaf stage of barnyard grass, examined after 3 weeks
Source text: as §1, §2, §3
Evaluation of phytotoxicity is shown in the following six grades, as compared with the condition of untreated control: • 0: normal growth • 1: little damaged • 2: low damaged • 3: medium damaged • 4: serious damaged • 5: complete killed.

[6] = system: southern crabgrass (Digitaria ciliaris); experiment: Soil treatment test for upland field (Test Example 2): southern crabgrass; details: soil treatment before germination, examined after 3 weeks
Procedure, shortened: (§5)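 Seeds were sown in upland field soil and covered. Next, diluted wettable-powder formulations were sprayed evenly over the surface before germination, using 15 liters of water per are. Pots then stood in a glasshouse averaging 25° C for 3 weeks before grading inhibition 0–5 relative to controls.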

[7] = system: common lambsquaters (Chenopodium album); experiment: Soil treatment test for upland field (Test Example 2): common lambsquaters; details: soil treatment before germination, examined after 3 weeks
Procedure, shortened: as §5

[8] = system: slender amaranth (Amaranthus viridis); experiment: Soil treatment test for upland field (Test Example 2): slender amaranth; details: soil treatment before germination, examined after 3 weeks
Procedure, shortened: as §5

[9] = system: common purslane (Portulaca oleracea); experiment: Soil treatment test for upland field (Test Example 2): common purslane; details: soil treatment before germination, examined after 3 weeks
Procedure, shortened: as §5

[10] = system: velvetleaf (Abutilon theophrasti); experiment: Soil treatment test for upland field (Test Example 2): velvetleaf; details: soil treatment before germination, examined after 3 weeks
Procedure, shortened: as §5

[11] = system: wheat; experiment: Soil treatment test for upland field (Test Example 2): phytotoxicity to wheat; details: soil treatment before germination, examined after 3 weeks
[12] = system: corn; experiment: Soil treatment test for upland field (Test Example 2): phytotoxicity to corn; details: soil treatment before germination, examined after 3 weeks
[13] = system: soybean; experiment: Soil treatment test for upland field (Test Example 2): phytotoxicity to soybean; details: soil treatment before germination, examined after 3 weeks
[14] = system: southern crabgrass; experiment: Foliage treatment test for upland field (Test Example 3): southern crabgrass; details: foliage treatment at 1.0-2.0 leaf stage of southern crabgrass, examined after 3 weeks
Procedure, shortened: (§6)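 Scored after 3 weeks at 25° C on a six-grade scale from 0 (under 20% inhibition) to 5 (100%) relative to untreated plants. Foliar spray of diluted wettable powder at 15 L/are, applied when southern crabgrass reached the 1.0-2.0 leaf stage.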

[15] = system: common lambsquaters; experiment: Foliage treatment test for upland field (Test Example 3): common lambsquaters; details: foliage treatment at 1.0-2.0 leaf stage of southern crabgrass, examined after 3 weeks
Procedure, shortened: as §6

[16] = system: slender amaranth; experiment: Foliage treatment test for upland field (Test Example 3): slender amaranth; details: foliage treatment at 1.0-2.0 leaf stage of southern crabgrass, examined after 3 weeks
Procedure, shortened: as §6

[17] = system: common purslane; experiment: Foliage treatment test for upland field (Test Example 3): common purslane; details: foliage treatment at 1.0-2.0 leaf stage of southern crabgrass, examined after 3 weeks
Procedure, shortened: as §6

[18] = system: velvetleaf; experiment: Foliage treatment test for upland field (Test Example 3): velvetleaf; details: foliage treatment at 1.0-2.0 leaf stage of southern crabgrass, examined after 3 weeks
Procedure, shortened: as §6

[19] = system: wheat; experiment: Foliage treatment test for upland field (Test Example 3): phytotoxicity to wheat; details: foliage treatment at 1.0-2.0 leaf stage of southern crabgrass, examined after 3 weeks
Procedure, shortened: (§7)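 Crops sown in compost-mixed soil pots, kept in a glasshouse at 25° C. average. Effect scored after 3 weeks versus untreated control on a 0–5 scale (0 normal growth, 5 complete kill).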

[20] = system: corn; experiment: Foliage treatment test for upland field (Test Example 3): phytotoxicity to corn; details: foliage treatment at 1.0-2.0 leaf stage of southern crabgrass, examined after 3 weeks
Procedure, shortened: as §7

[21] = system: soybean; experiment: Foliage treatment test for upland field (Test Example 3): phytotoxicity to soybean; details: foliage treatment at 1.0-2.0 leaf stage of southern crabgrass, examined after 3 weeks
Procedure, shortened: as §7

In the case of `CCOCC(=Cc1cccc(C(F)(F)F)c1)c1nc2cc(C(F)(F)F)ccc2o1` [Compound 54], the “Herbicidal Effect Barnyard grass” value ([1]; dose 2.5 g ai/a) is reported as 5 (100%), the “Herbicidal Effect Barnyard grass” value ([1]; dose 5 g ai/a) is reported as 5 (100%) and the “Herbicidal Effect Monochoria vaginalis” value ([2]; dose 2.5 g ai/a) is reported as 5 (100%). The “Herbicidal Effect Monochoria vaginalis” value ([2]; dose 5 g ai/a) was 5 (100%), the “Herbicidal Effect Japanese bulrush” value ([3]; dose 2.5 g ai/a) was 4 (80%-less than 100%) and the “Herbicidal Effect Japanese bulrush” value ([3]; dose 5 g ai/a) was 5 (100%). The “Herbicidal Effect Flat sedge” value ([4]; dose 2.5 g ai/a) was 3 (60%-less than 80%), the “Herbicidal Effect Flat sedge” value ([4]; dose 5 g ai/a) was 4 (80%-less than 100%) and the “Phytotoxicity Rice plant” value ([5]; dose 2.5 g ai/a) was 1. For the same molecule, the “Phytotoxicity Rice plant” value ([5]; dose 5 g ai/a) was 1, the “Herbicidal Effect southern crabgrass” value ([6]; dose 2.5 g ai/a) was 5 (100%) and the “Herbicidal Effect southern crabgrass” value ([6]; dose 5 g ai/a) was 5 (100%). For the same molecule, the “Herbicidal Effect common lambsquaters” value ([7]; dose 2.5 g ai/a) was 5 (100%), the “Herbicidal Effect common lambsquaters” value ([7]; dose 5 g ai/a) was 5 (100%) and the “Herbicidal Effect slender amaranth” value ([8]; dose 2.5 g ai/a) was 5 (100%). For the same molecule, the “Herbicidal Effect slender amaranth” value ([8]; dose 5 g ai/a) was 5 (100%), the “Herbicidal Effect common purslane” value ([9]; dose 2.5 g ai/a) was 5 (100%) and the “Herbicidal Effect common purslane” value ([9]; dose 5 g ai/a) was 5 (100%). The “Herbicidal Effect velvetleaf” value ([10]; dose 2.5 g ai/a) was 5 (100%), the “Herbicidal Effect velvetleaf” value ([10]; dose 5 g ai/a) was 5 (100%) and the Phytotoxicity wheat ([11]; dose 2.5 g ai/a) was 1. The Phytotoxicity wheat ([11]; dose 5 g ai/a) was 1, the Phytotoxicity corn ([12]; dose 2.5 g ai/a) was 1 and the Phytotoxicity corn ([12]; dose 5 g ai/a) was 1. For the same molecule, the Phytotoxicity soybean ([13]; dose 2.5 g ai/a) was 0, the Phytotoxicity soybean ([13]; dose 5 g ai/a) was 1 and the “Herbicidal Effect southern crabgrass” value ([14]; dose 2.5 g ai/a) was 5 (100%). The “Herbicidal Effect southern crabgrass” value ([14]; dose 5 g ai/a) was 5 (100%), the “Herbicidal Effect Common lambsquatters” value ([15]; dose 2.5 g ai/a) was 5 (100%) and the “Herbicidal Effect Common lambsquatters” value ([15]; dose 5 g ai/a) was 5 (100%). For the same molecule, the “Herbicidal Effect slender amaranth” value ([16]; dose 2.5 g ai/a) was 5 (100%), the “Herbicidal Effect slender amaranth” value ([16]; dose 5 g ai/a) was 5 (100%) and the “Herbicidal Effect common purslane” value ([17]; dose 2.5 g ai/a) was 5 (100%). For the same molecule, the “Herbicidal Effect common purslane” value ([17]; dose 5 g ai/a) was 5 (100%), the “Herbicidal Effect velvetleaf” value ([18]; dose 2.5 g ai/a) was 5 (100%) and the “Herbicidal Effect velvetleaf” value ([18]; dose 5 g ai/a) was 5 (100%). It also gave a Phytotoxicity wheat ([19]; dose 2.5 g ai/a) of 1, a Phytotoxicity wheat ([19]; dose 5 g ai/a) of 1 and a Phytotoxicity corn ([20]; dose 2.5 g ai/a) of 1. It also gave a Phytotoxicity corn ([20]; dose 5 g ai/a) of 2, a Phytotoxicity soybean ([21]; dose 2.5 g ai/a) of 2 and a Phytotoxicity soybean ([21]; dose 5 g ai/a) of 2.
In the case of `COCC(=Cc1ccc(F)c(C(F)(F)F)c1)c1nc2cc(F)c(F)cc2o1` [Compound 126], the “Herbicidal Effect Barnyard grass” value ([1]; dose 2.5 g ai/a) is reported as 5 (100%), the “Herbicidal Effect Barnyard grass” value ([1]; dose 5 g ai/a) is reported as 5 (100%) and the “Herbicidal Effect Monochoria vaginalis” value ([2]; dose 2.5 g ai/a) is reported as 5 (100%). For the same molecule, the “Herbicidal Effect Monochoria vaginalis” value ([2]; dose 5 g ai/a) was 5 (100%), the “Herbicidal Effect Japanese bulrush” value ([3]; dose 2.5 g ai/a) was 3 (60%-less than 80%) and the “Herbicidal Effect Japanese bulrush” value ([3]; dose 5 g ai/a) was 4 (80%-less than 100%). For the same molecule, the “Herbicidal Effect Flat sedge” value ([4]; dose 2.5 g ai/a) was 2 (40%-less than 60%), the “Herbicidal Effect Flat sedge” value ([4]; dose 5 g ai/a) was 3 (60%-less than 80%) and the “Phytotoxicity Rice plant” value ([5]; dose 2.5 g ai/a) was 0. For the same molecule, the “Phytotoxicity Rice plant” value ([5]; dose 5 g ai/a) was 0, the “Herbicidal Effect southern crabgrass” value ([6]; dose 2.5 g ai/a) was 4 (80%-less than 100%) and the “Herbicidal Effect southern crabgrass” value ([6]; dose 5 g ai/a) was 5 (100%). For the same molecule, the “Herbicidal Effect common lambsquaters” value ([7]; dose 2.5 g ai/a) was 5 (100%), the “Herbicidal Effect common lambsquaters” value ([7]; dose 5 g ai/a) was 5 (100%) and the “Herbicidal Effect slender amaranth” value ([8]; dose 2.5 g ai/a) was 5 (100%). The “Herbicidal Effect slender amaranth” value ([8]; dose 5 g ai/a) was 5 (100%), the “Herbicidal Effect common purslane” value ([9]; dose 2.5 g ai/a) was 5 (100%) and the “Herbicidal Effect common purslane” value ([9]; dose 5 g ai/a) was 5 (100%). For the same molecule, the “Herbicidal Effect velvetleaf” value ([10]; dose 2.5 g ai/a) was 3 (60%-less than 80%), the “Herbicidal Effect velvetleaf” value ([10]; dose 5 g ai/a) was 4 (80%-less than 100%) and the Phytotoxicity wheat ([11]; dose 2.5 g ai/a) was 0. It also gave a Phytotoxicity wheat ([11]; dose 5 g ai/a) of 0, a Phytotoxicity corn ([12]; dose 2.5 g ai/a) of 0 and a Phytotoxicity corn ([12]; dose 5 g ai/a) of 0. The Phytotoxicity soybean ([13]; dose 2.5 g ai/a) was 0, the Phytotoxicity soybean ([13]; dose 5 g ai/a) was 0 and the “Herbicidal Effect southern crabgrass” value ([14]; dose 2.5 g ai/a) was 4 (80%-less than 100%). For the same molecule, the “Herbicidal Effect southern crabgrass” value ([14]; dose 5 g ai/a) was 5 (100%), the “Herbicidal Effect Common lambsquatters” value ([15]; dose 2.5 g ai/a) was 5 (100%) and the “Herbicidal Effect Common lambsquatters” value ([15]; dose 5 g ai/a) was 5 (100%). The “Herbicidal Effect slender amaranth” value ([16]; dose 2.5 g ai/a) was 5 (100%), the “Herbicidal Effect slender amaranth” value ([16]; dose 5 g ai/a) was 5 (100%) and the “Herbicidal Effect common purslane” value ([17]; dose 2.5 g ai/a) was 5 (100%). For the same molecule, the “Herbicidal Effect common purslane” value ([17]; dose 5 g ai/a) was 5 (100%), the “Herbicidal Effect velvetleaf” value ([18]; dose 2.5 g ai/a) was 3 (60%-less than 80%) and the “Herbicidal Effect velvetleaf” value ([18]; dose 5 g ai/a) was 4 (80%-less than 100%). The Phytotoxicity wheat ([19]; dose 2.5 g ai/a) was 0, the Phytotoxicity wheat ([19]; dose 5 g ai/a) was 1 and the Phytotoxicity corn ([20]; dose 2.5 g ai/a) was 0. It also gave a Phytotoxicity corn ([20]; dose 5 g ai/a) of 1, a Phytotoxicity soybean ([21]; dose 2.5 g ai/a) of 1 and a Phytotoxicity soybean ([21]; dose 5 g ai/a) of 1.
